Columns and labels:
[1] = tested on: PTGES, ALOX5, LTC4S, LTA4H and ALOX5AP mRNA in liver; test: Liver oxylipin synthase mRNAs by qPCR in chemotherapy-induced senescence model; assay type: in vivo, p16-3MR mice; details: FIG. 3B
Procedure: A. IMR-90 cells were proliferative in 10% serum, made quiescent by incubation for 3 days in 0.2% serum, or made senescent by treatment with 10 Gy X-rays (IR) or ethidium bromide to induce mitochondrial-dysfunction induced senescence (MiDAS). Lipids were extracted from proliferating (PRO—10%), quiescent (QUI—0.2%), IR-induced senescent (SEN(IR)—10% or 0.2% serum), or mitochondrial dysfunction-associated senescent (MiDAS-0.2%) cells and analyzed by liquid chromatography combined with mass spectrometry (LC-MS). Putative oxylipins (A) were detected in control and senescent cells. B. p16-3MR mice were given a single dose (10 mg/kg) of doxorubicin (DOXO) or phosphate-buffered saline (PBS) by intraperitoneal (i.p.) injection. After 5 days, mice were given GCV (25 mg/kg) or vehicle by i.p. injection for 5 consecutive days. Livers were harvested on day 10 and analyzed for oxylipin synthase mRNAs by qPCR. Heat maps indicate averages of at least 5 mice (*=p<0.05, 1-way ANOVA). C. C57BL/6 mice were aged for 6 (young) or 24 (old) months. Kidneys were harvested from mice and analyzed for oxylipin synthase RNA levels by qPCR.
Briefly, mice were treated with either control (phosphate buffered saline, (PBS)), doxorubicin (DOXO), or the combination of DOXO and ganciclovir (GCV). GCV is known to eliminate senescent cells in the liver at the concentrations administered, i.e., 25 mg/kg.

senescent cells = test: Ferroptosis induction in senescent relative to non-senescent cells (general statement); assay type: cell-based; details: general statement in description
Excerpt: While many of these oxylipins can drive pathology, such as in the case of pulmonary fibrosis, this may also result in a vulnerability that allows them to be targeted for elimination. Among the oxylipin synthesis enzymes elevated during senescence are arachidonate 5-, 12-, 15-, and 15B-lipoxygenases (ALOX5, 12, 15, and 15B), as well as ALOX5 activating protein (ALOX5AP). These lipoxygenases produce oxylipins, such as the leukotrienes, by acting on free arachidonic acid inside of the cell. However, these enzymes may also peroxidize arachidonic acid that is bound (esterified) in the plasma membrane. Lipid peroxides then react with labile iron in the cytosol via Fenton reaction to result in an exponential chain reaction of lipid peroxidation, ultimately resulting in a form of cell death known as “ferroptosis”. […] Other compounds, such as artemisinin and its derivatives interact with labile iron to increase lipid peroxidation. Since senescent cells also show elevated levels of labile iron, in addition to lipoxygenases, these cells are especially sensitive to induction of ferroptosis. […] As used herein, “senolytic” refers to the property of a molecule, compound, or composition to selectively kill senescent cells. Thus, ML-210, RSL3, FIN56, erastin, artemisinin, and related molecules are useful for the treatment of chronic degenerative diseases that are characterized by cellular senescence.

[2] = tested on: senescent cells induced with 10 Gy of IR; test: Cell survival (CCK8) of IR-induced senescent cells vs non-senescent controls; assay type: cell-based
Procedure: (§1) A. RNA levels of GPX4 in cells induced to senesce by ionizing radiation (IR), mitochondrial dysfunction (MiDAS), or lentiviral overexpression of […] [SEN(RAS)]. Non-senescent cells induced by either mock treatment (NS) or empty lentiviral vector (Vector) served as controls. RNA levels measure by quantitative RT-PCR and normalized to actin. B—C. Cells were induced to senesce by 24 h of treatment with 250 nM doxorubicin [SEN(DOXO)] or control [NS (DMSO)], and 10 days later were given the indicated drug doses for 24 h. D. Cells were induced to senesce with 10 Gy of IR and 10 days later given the indicated drug doses for 24 h. E-F. Cells were induced to senesce with 10 Gy of IR and 10 days later given the indicated drug doses for 72 h. Cell survival was then measured by colorimetric assay (CCK8). *=p<0.01
Preliminary data: Senescent cells appear primed to undergo ferroptosis. Not only do they elevate ALOX enzymes (FIG. 1A) and PUFA levels (FIG. 1B), but the lipid hydroxide products of these enzymes are elevated (FIG. 1C), as are byproducts of lipid peroxidation, (e.g. 4-HNE and 4-HDDE (FIG. 1D)). Lipid peroxidation-sensitive probes, e.g., C11-BODIPY, indicate increased lipid peroxidation during senescence. Furthermore, senescent cells accumulate iron in their cytosol. […]

[3] = tested on: IR-induced senescent [SEN(IR)] cells; test: Rescue of RSL3-induced ferroptosis in IR-induced senescent cells (CCK8 survival); assay type: cell-based
Procedure: Non-senescent (NS: mock irradiated) or IR-induced senescent [SEN(IR)] cells were treated 10 days after irradiation with […] RSL3 and the indicated ferroptosis antagonist, followed by cell survival measurement by CCK8 assay. A. Cells were treated with ferrostatin-1 (FSN1—1 μM) at the same time as RSL3. B. Cells were given the ALOX5 and ALOX15 inhibitor zileuton (Zil—50 μM) at the same time as RSL3. C. Cells were given iron chelators deferoxamine (DFX—25 μM) or salicylaldehyde isonicotinoyl hydrazine (SIH—100 μM) at the same time as RSL3. D. Cells were given ACSL4 inhibitors rosiglitazone (ROSI—100 μM) or PRGL493 (PRGL—100 μM) for 72 h prior to RSL3. ***=p<0.001
The inventor next sought to further elucidate the potential mechanisms for induction of ferroptosis in senescent cells by the disclosed senolytic drugs. The inventor rescued ferroptosis in senescent cells induced by contacting the cells with RSL3 and ferrostatin-1 (FSN1), which inhibits lipid peroxidation (FIG. 6A), zileuton (5- and 15-lipoxygenase inhibitor), which protects cells from lipoxygenase-induced membrane peroxidation (FIG. 6B), iron chelators deferoxamine or salicylaldehyde isonicotinoyl hydrazine (FIG. 6C), and ACSL4 inhibitors rosiglitazone or PRGL493 (FIG. 6D).

[4] = tested on: senescent cells [SEN(DOXO)]; test: Cell survival (CCK8) of doxorubicin-induced senescent cells vs non-senescent controls; assay type: cell-based; details: SEN(DOXO) (250 nM doxorubicin 24 h) vs NS (DMSO); drug given 10 days later for 24 h; FIG. 5B-C
Procedure: as §1, with “*=p<0.01 Preliminary data: Senescent cells appear primed to undergo ferroptosis. Not only do they elevate ALOX enzymes (FIG. 1A) and PUFA levels (FIG. 1B), but the lipid hydroxide products of these enzymes are elevated (FIG. 1C), as are byproducts of lipid peroxidation, (e.g. 4-HNE and 4-HDDE (FIG. 1D)). Lipid peroxidation-sensitive probes, e.g., C11-BODIPY, indicate increased lipid peroxidation during senescence. Furthermore, senescent cells accumulate iron in their cytosol. […]” for “*=p<0.01”

[5] = given at the same time as 0.1 mM RSL3, FSN1 1 μM, Zil 50 μM, DFX 25 μM, SIH 100 μM, FIG. 6A-C

Row | Molecule | selective induction of ferroptosis in senescent cells relative to non-senescent cells (senescent cells) | rescue of RSL3-induced ferroptosis in senescent cells (cell survival, CCK8) [3, 5] | other results
1 | COc1cccc2c1C(=O)c1c(O)c3c(c(O)c1C2=O)C[C@@](O)(C(=O)CO)C[C@@H]3O[C@H]1C[C@H](N)[C@H](O)[C@H](C)O1 [DOXO, doxorubicin] | – | – | liver mRNA levels of PTGES, ALOX5, LTC4S, LTA4H and ALOX5AP ([1]; single dose 10 mg/kg i.p. vs PBS, livers harvested day 10): DOXO-dependent increase in the mRNA levels
2 | O=S(=O)(NC1CCCCC1)c1ccc2c(c1)C(=NO)c1cc(S(=O)(=O)NC3CCCCC3)ccc1-2 [FIN56] | selectively induces ferroptosis in senescent cells relative to non-senescent cells | – | –
3 | Nc1nc(O)c2ncn(COC(CO)CO)c2n1 [GCV, ganciclovir] | – | – | effect on DOXO-dependent increase of liver mRNA levels of PTGES, ALOX5, LTC4S, LTA4H and ALOX5AP ([1]; 25 mg/kg i.p. for 5 consecutive days, 5 days after DOXO): abrogates the DOXO-dependent increase in the mRNA levels
4 | Cc1onc(C(=O)N2CCN(C(c3ccc(Cl)cc3)c3ccc(Cl)cc3)CC2)c1[N+](=O)[O-] [ML-210] | selectively induces ferroptosis in senescent cells relative to non-senescent cells | – | selective induction of ferroptosis in senescent cells (cell survival, CCK8) ([2]; 10 Gy IR senescent vs non-senescent (NS) cells, drug given 10 days later for 24 h, FIG. 5D): selectively induced ferroptosis in senescent cells and not control non-senescent (NS) cells
5 | CC(=O)NC1=NC(c2cn(-c3ccccc3)nc2-c2ccc(C)o2)n2c(nc3ccccc32)N1 (stereo not drawn) [PRGL493] | – | – | rescue of RSL3-induced ferroptosis in senescent cells (cell survival, CCK8) ([3]; given for 72 h prior to 0.1 mM RSL3, ROSI 100 μM, PRGL 100 μM, FIG. 6D): rescued induction of ferroptosis in senescent cells
6 | COC(=O)c1ccc([C@H]2c3[nH]c4ccccc4c3CC(C(=O)OC)N2C(=O)CCl)cc1 (stereo partly drawn) [RSL3] | selectively induces ferroptosis in senescent cells relative to non-senescent cells | – | selective killing of senescent cells (cell survival, CCK8) [4]: selectively killed senescent cells
7 | C[C@@H]1CC[C@H]2[C@@H](C)C(=O)O[C@@H]3O[C@@]4(C)CC[C@@H]1[C@]32OO4 [artemisinin] | – | – | cell death in senescent cells vs control cells (cell survival, CCK8) ([2]; 10 Gy IR, drug given 10 days later for 72 h, several concentrations, FIG. 5E-5F): induced significantly more cell death in senescent cells than control cells
8 | CCOC(=O)c1ccc(NC2CCCCC2)c(N)c1 [ferrostatin-1] | – | rescued induction of ferroptosis in senescent cells | –
9 | CC(c1cc2ccccc2s1)N(O)C(N)=O (stereo not drawn) [zileuton] | – | rescued induction of ferroptosis in senescent cells | –
10 | salicylaldehyde isonicotinoyl hydrazine | – | rescued induction of ferroptosis in senescent cells | –

From patent publication US20250064775A1, “SELECTIVE ELIMINATION OF SENESCENT CELLS BY FERROPTOSIS INDUCTION” (Trustees of Tufts College, priority 2022, published 2025)
